One data set deals with 786-O. Nature of the data set: Cell viability (CellTiter-Glo) of 786-O. The class given is cell-based. The note with it: Homo sapiens, 786-0, 72 h, 3 days of culture. On the procedure:
(§1) Cell viability was detected using the Promega CellTiter-Glo kit, the kit reflected cell viability by directly measuring intracellular ATP content. In the experiment, the IC50 value of different compounds on different tumor cell lines was detected to determine cell lines that were sensitive or insensitive to different compounds.
(§2) Tumor cells were cultured in 10% FBS-containing medium (+p/s), and incubated for 3 h or the following day, then the gradient diluted compound was added. After 3 days of culture, the relevant IC50 (50% inhibiting concentration) was measured. The name, source and culture conditions of each tumor cell line were as follows:
Cell line 786-0 (ATCC, No. CRL-1932) was cultured in 10% fetal bovine serum-containing RPMI1640 medium (+P/S).
(In ATP-based viability assays light output follows the ATP content of the culture.)

A further data set relates to MDA-MB-453. Nature of the data set: Cell viability (CellTiter-Glo) of MDA-MB-453. The data set is classed as cell-based. The note with it: Homo sapiens. On the procedure:
(§3) Cell viability was detected using the Promega CellTiter-Glo kit, the kit reflected cell viability by directly measuring intracellular ATP content. Different cancer cells was cultured in medium, the 50% inhibiting concentration (IC50) of compound AB24852 on cancer cells was determined using Promega CellTiter-Glo kit. The name, source and culture conditions of each tumor cell line were as follows:
Cell line MDA-MB-453 (ATCC, No. HTB-131) was cultured in 10% fetal bovine serum-containing Leibovitz's L-15 medium (+P/S).
as §1
(§4) Tumor cells were cultured in 10% FBS-containing medium (+p/s), and incubated for 3 h or the following day, then the gradient diluted compound was added. After 3 days of culture, the relevant IC50 (50% inhibiting concentration) was measured. The name, source and culture conditions of each tumor cell line were as follows: […]

The test system of a further data set is NCI-H82 cell. Nature of the data set: Cell viability (Promega CellTiter-Glo) of NCI-H82 cell. The note with it: Homo sapiens. The class given is cell-based. On the procedure: Cell viability was detected using the Promega CellTiter-Glo kit, the kit reflected cell viability by directly measuring intracellular ATP content. Small cell lung cancer cell NCI-H82 (ATCC, No. HTB-175) was cultured in 10% fetal bovine serum-containing RPMI1640 medium (+P/S).
Cell viability was detected using the Promega CellTiter-Glo kit, the kit reflected cell viability by directly measuring intracellular ATP content.
Daoy cell was cultured in 10% fetal bovine serum-containing DMEM medium (+P/S), and NCI-H82 cell was cultured in 10% fetal bovine serum-containing RPMI1640 medium (+P/S).
as §1, §2
Cell line NCI-H82 (ATCC, No. HTB-175) was cultured in 10% fetal bovine serum-containing RPMI1640 medium (+P/S).

Another data set concerns G-401. The data set is described as follows: Cell viability (CellTiter-Glo) of G-401. The data set is classed as cell-based. To be noted: Homo sapiens. On the procedure: as §3
Cell line G-401 (ATCC, No. CRL-1441) was cultured in 10% fetal bovine serum-containing McCoy's 5a medium (+P/S).
as §1, §4

In the next data set the test system is CFPAC-1. Nature of the data set: Cell viability (CellTiter-Glo) of CFPAC-1. The data set is classed as cell-based. The note with it: Homo sapiens, 72 h; CFPAC-1, 3 days of culture. On the procedure:
as §1, §2
Cell line CFPAC-1 (ATCC, No. CRL-1918) was cultured in 10% fetal bovine serum-containing IMDM medium (+P/S).

Another data set deals with SW48. The data set is described as follows: Cell viability (CellTiter-Glo) of SW48. The class given is cell-based. The note with it: Homo sapiens. On the procedure:
as §3
Cell line SW48 (ATCC, No. CCL-231) was cultured in 10% fetal bovine serum-containing Leibovitz's L-15 medium (+P/S).
as §1, §4

The next data set concerns GB-1. Nature of the data set: Cell viability (CellTiter-Glo) of GB-1. The data set is classed as cell-based. To be noted: Homo sapiens, 72 h; GB-1, 3 days of culture. On the procedure:
as §1, §2
Cell line GB-1 (JCRB, No. IF050489) was cultured in 10% fetal bovine serum-containing DMEM medium (+P/S).

Another data set relates to SF-126. The data set is described as follows: Cell viability (CellTiter-Glo) of SF-126. The note with it: Homo sapiens, 72 h; SF-126, 3 days of culture. The data set is classed as cell-based. On the procedure:
as §1, §4

The nature of data set [1]: Stability in human liver microsome. The data set is classed as in vitro ADME. The note with it: liver microsomes, pH 7.4, 1.5 μM drug solution, NADPH, 37° C., read-out: Human T1/2. On the procedure:
Vortexing for 10 min, the sample was centrifuged with 5594×g for 15 min in centrifuger (Thermo Multifuge×3R). • 10) taking 50 μL supernatant from the centrifuged sample, transferred to 96 well sample plate contain 50 μL water, mixed, and the sample was analyzed using LC-MS/MS.

The subject of data set [2] is mitochondria permeability transition pore. The data set is described as follows: Mitochondria membrane potential difference by TMRM in NCI-H82 cell. The note with it: H2O2 +, CsA none. The data set is classed as cell-based, human.
Data set [3] has the same test system. The data set is described as follows: Mitochondria membrane potential difference by TMRM in Daoy cell. The class given is cell-based, human. To be noted: H2O2 +, CsA none.
In the next data set the test system is NCI-H1048. Nature of the data set: Cell viability (CellTiter-Glo) of NCI-H1048. The note with it: Homo sapiens; NCI-H1048, lung cancer. The data set is classed as cell-based. On the procedure:
as §3
Cell line NCI-H1048 (ATCC, No. CRL-5853) was cultured in 5% fetal bovine serum-containing HITES medium (+P/S).

The test system of a further data set is OCI-AML-4. The data set is described as follows: Cell viability (CellTiter-Glo) of OCI-AML-4. The class given is cell-based. To be noted: OCI-AML-4, leukemia. On the procedure: as §3
Cell line OCI-AML-4 (DSMZ, No. ACC-729) was cultured in alpha-MEM medium containing 20% fetal bovine serum and 20% volume fraction of 5637 cell line adjusted medium (+P/S).

The next data set concerns 22RV1. Nature of the data set: Cell viability (CellTiter-Glo) of 22RV1. The data set is classed as cell-based. The note with it: Homo sapiens; 22RV1, prostatic cancer. On the procedure: as §3
Cell line 22RV1 (ATCC, No. CRL-2505) was cultured in 10% fetal bovine serum-containing RPMI1640 medium (+P/S).

In another data set the test system is SNU-398. Nature of the data set: Cell viability (CellTiter-Glo) of SNU-398. The class given is cell-based. To be noted: Homo sapiens; SNU-398, liver cancer. On the procedure: as §3
Cell line SNU-398 (ATCC, number CRL-2233) was cultured in 10% fetal bovine serum-containing RPMI1640 medium (+P/S).

A further data set relates to MIA PaCa-2. Nature of the data set: Cell viability (CellTiter-Glo) of MIA PaCa-2. The data set is classed as cell-based. The note with it: Homo sapiens; MIA PaCa-2, pancreatic cancer. On the procedure: as §3
Cell line MIA PaCa-2 (ATCC, No. CRL-1420) was cultured in 10% fetal bovine serum-containing DMEM medium (+P/S).

The subject of the next data set is A-375. Nature of the data set: Cell viability (CellTiter-Glo) of A-375. The data set is classed as cell-based. To be noted: Homo sapiens; A-375, melanoma. On the procedure: as §3
Cell line A-375 (ATCC, No. CRL-1619) was cultured in 10% fetal bovine serum-containing DMEM medium (+P/S).

Another data set relates to SU-DHL-2. Nature of the data set: Cell viability (CellTiter-Glo) of SU-DHL-2. To be noted: Homo sapiens; SU-DHL-2, lymphoma. The data set is classed as cell-based. On the procedure:
as §3
Cell line SU-DHL-2 (ATCC, No. CRL-2956) was cultured in 10% fetal bovine serum-containing RPMI1640 medium (+P/S).

[4] abbreviates: 72 h, MDA-MB-453, 3 days of culture, Table 5, read-out: IC50 MDA-MB-453.
Where [5] appears, read: 72 h, NCI-H82, 3 days of culture, Table 5, read-out: IC50 NCI-H82.
Where [6] appears, read: NCI-H82 cell, Table 1, read-out: IC50.
The mark [7] stands for this setting: 72 h, G-401, 3 days of culture, Table 5, read-out: IC50 G-401.
Setting [8] is: 72 h, SW48, 3 days of culture, Table 5, read-out: IC50 SW48.

Structures are written as SMILES. Where two headings read alike, the source gives them in different places.

`O=C(C[n+]1ccc(NCc2ccccc2)cc1)c1cccc(Cl)c1` [AB24805A]: the IC50 worked out at 46500 nM with 786-O; 210 nM in the data set with MDA-MB-453 (setting [4]); 370 nM in the data set on NCI-H82 cell (setting [5]); 370 nM in the data set with NCI-H82 cell (setting [6]); 420 nM in the data set with G-401 (setting [7]); 35700 nM with CFPAC-1. For the same compound, the IC50 with SW48 (setting [8]) was 760 nM; in the data set on GB-1, 3430 nM; in the data set with SF-126, 3180 nM. Also, the half-life at 1 µM in [1] is 3.71 h.

As for `O=C(C[n+]1ccc(NCc2ccccc2)cc1)c1ccc(OC(F)(F)F)cc1` [AB24810A], the 50% inhibitory concentration (IC50) in the data set with 786-O was > 50000 nM; with MDA-MB-453 (setting [4]), 2690 nM; in the data set with NCI-H82 cell (setting [5]), 1340 nM; in the data set with NCI-H82 cell (setting [6]), 1340 nM; with G-401 (setting [7]), 1950 nM; in the data set on CFPAC-1, 36000 nM. Besides, the IC50 in the data set with SW48 (setting [8]) was found to be 2130 nM; with GB-1, 24500 nM; with SF-126, 13100 nM. Besides, the half-life at 1 µM in data set [1] came to 65.2 h.

Take `OO` [Compound H2O2]: the “Relative TMRM signal intensity, mean value” in data set [2] was found to be 119%; in data set [3], 82%.

In the case of `O=C1c2ccc(Cl)cc2CCC1[n+]1ccc(NCc2ccccc2)cc1` (centres unmarked) [AB24841A], the IC50 is > 50000 nM in the data set on 786-O; 620 nM with MDA-MB-453 (setting [4]); 590 nM in the data set with NCI-H82 cell (setting [5]); 590 nM in the data set on NCI-H82 cell (setting [6]); 630 nM with G-401 (setting [7]); 35700 nM with CFPAC-1. The IC50 in the data set with SW48 (setting [8]) was 800 nM; with GB-1, 16400 nM; with SF-126 it was 10800 nM. Moreover, the half-life at 1 µM in data set [1] was found to be 20.4 h.

For the compound `O=C(C[n+]1ccc(NCc2ccccc2)cc1)c1cccc([N+](=O)[O-])c1` [AB24852], the IC50 with NCI-H1048 was 1100 nM; in the data set with 786-O, > 50000 nM; in the data set with MDA-MB-453 (setting [4]), 220 nM; in the data set with MDA-MB-453 (MDA-MB-453, breast cancer, Table 2, read-out: IC50) it was 200 nM; in the data set with NCI-H82 cell (setting [5]), 1460 nM; with NCI-H82 cell (setting [6]) it was 1460 nM. The IC50 is 800 nM in the data set with OCI-AML-4; 2300 nM in the data set with 22RV1; 1020 nM in the data set with G-401 (setting [7]); 1000 nM with G-401 (G-401, renal carcinoma, Table 2, read-out: IC50); > 50000 nM in the data set with CFPAC-1; 720 nM in the data set with SW48 (setting [8]). In addition, the IC50 in the data set on SW48 (SW48, intestine cancer, Table 2, read-out: IC50) is 700 nM; with SNU-398 it was 1700 nM; in the data set on MIA PaCa-2, 700 nM; in the data set with GB-1, > 50000 nM; in the data set with A-375 it was 1300 nM; in the data set with SF-126, > 50000 nM. The concentration for half-maximal inhibition (IC50) with SU-DHL-2 turned out to be 300 nM. Also, the half-life at 1 µM in data set [1] came to 1.78 h.

As to `O=C(C[n+]1ccc(NCc2ccccc2)cc1)c1ccc(C(F)(F)F)cc1` [AB24809A], the IC50 in the data set on 786-O is > 50000 nM; in the data set with MDA-MB-453 (setting [4]) it was 1770 nM; in the data set on NCI-H82 cell (setting [5]), 2430 nM; in the data set with NCI-H82 cell (setting [6]), 2430 nM; in the data set with G-401 (setting [7]) it was 3030 nM; with CFPAC-1, > 50000 nM. The IC50 with SW48 (setting [8]) was 7640 nM; with GB-1, > 50000 nM; with SF-126, 37500 nM. In addition, the half-life at 1 µM in data set [1] was determined as 6.64 h.

One may read the IC50 as the concentration at which inhibition is half-maximal.

The record behind these values is patent publication US20240124445A1, “BENZENE RING COMPOUND AND USE THEREOF” (NANJING SHIJIANG MEDICINE TECHNOLOGY CO., LTD, priority 2020, published 2024).
